From ChEMBL document CHEMBL3885881, “DrugMatrix”

Species: Rattus norvegicus
Test: DrugMatrix - Regimen: Daily Repeat
Assay type: toxicity, organism-based, Sprague-Dawley
Design: regimen Daily Repeat, gender Male, age 6-8 weeks
Settings: in vivo, po, route oral GAVAGE, vehicle .5 % CMC; for ABSOLUTE BASOPHIL / ABSOLUTE EOSINOPHIL / ABSOLUTE LYMPHOCYTE / ABSOLUTE MONOCYTE / ABSOLUTE SEGMENTED NEUTROPHIL / BASOPHIL / EOSINOPHIL / ERYTHROCYTE COUNT / HEMATOCRIT / HEMOGLOBIN / LEUKOCYTE COUNT / LYMPHOCYTE / MEAN CORPUSCULAR HEMOGLOBIN / MEAN CORPUSCULAR HEMOGLOBIN CONCENTRATION / MEAN CORPUSCULAR VOLUME / MONOCYTE / NEUTROPHIL / NUCLEATED RED BLOOD CELLS / PLATELET COUNT: tissue Blood; for ALANINE AMINOTRANSFERASE / ALBUMIN / ALKALINE PHOSPHATASE / ASPARTATE AMINOTRANSFERASE / BLOOD UREA NITROGEN / CARBON DIOXIDE / CHLORIDE / CHOLESTEROL / CREATINE PHOSPHOKINASE / CREATININE / GLUCOSE / LACTATE DEHYDROGENASE / LIPASE / PHOSPHORUS / POTASSIUM / SODIUM / TOTAL BILIRUBIN / TOTAL PROTEIN / URIC ACID: tissue Plasma
[1] = 17 mg/kg, 120 h, dose level Low, time 5 day
[2] = 85 mg/kg, 72 h, dose level High, time 3 day
[3] = 85 mg/kg, 120 h, dose level High, time 5 day

CN1CCN(CCCN2c3ccccc3Sc3ccc(Cl)cc32)CC1 [PROCHLORPERAZINE]
ABSOLUTE BASOPHIL [1]: 0 CELLS/uL
ABSOLUTE EOSINOPHIL [1]: 40 CELLS/uL
ABSOLUTE LYMPHOCYTE [1]: 12867.33 CELLS/uL
ABSOLUTE MONOCYTE [1]: 40 CELLS/uL
ABSOLUTE SEGMENTED NEUTROPHIL [1]: 986 CELLS/uL
BASOPHIL [1]: 0%
EOSINOPHIL [1]: 0.33%
ERYTHROCYTE COUNT [1]: 5.56 x10E6/uL
HEMATOCRIT [1]: 36.13%
HEMOGLOBIN [1]: 14.37 G/DL
LEUKOCYTE COUNT [1]: 13.93 x10E3/uL
LYMPHOCYTE [1]: 92.33%
MEAN CORPUSCULAR HEMOGLOBIN [1]: 25.87 pg
MEAN CORPUSCULAR HEMOGLOBIN CONCENTRATION [1]: 39.77 G/DL
MEAN CORPUSCULAR VOLUME [1]: 65.13 fL
MONOCYTE [1]: 0.33%
NEUTROPHIL [1]: 7%
NUCLEATED RED BLOOD CELLS [1]: 0 /100WBC
PLATELET COUNT [1]: 1289.67 x10E3/uL
ALANINE AMINOTRANSFERASE [1]: 45.33 u/L
ALBUMIN [1]: 4.27 G/DL
ALKALINE PHOSPHATASE [1]: 464.33 u/L
ASPARTATE AMINOTRANSFERASE [1]: 85 u/L
BLOOD UREA NITROGEN [1]: 15.33 mg/dL
CARBON DIOXIDE [1]: 27.33 mmol/L
CHLORIDE [1]: 100.67 MEQ/L
CHOLESTEROL [1]: 75.67 mg/dL
CREATINE PHOSPHOKINASE [1]: 372 u/L
CREATININE [1]: 0.12 mg/dL
GLUCOSE [1]: 141.67 mg/dL
LACTATE DEHYDROGENASE [1]: 401 u/L
LIPASE [1]: 9 u/L
PHOSPHORUS [1]: 12.43 mg/dL
POTASSIUM [1]: 6.4 MEQ/L
SODIUM [1]: 143.33 MEQ/L
TOTAL BILIRUBIN [1]: 0.17 mg/dL
TOTAL PROTEIN [1]: 6.1 G/DL
URIC ACID [1]: 1.33 mg/dL
ABSOLUTE BASOPHIL [2]: 0 CELLS/uL
ABSOLUTE EOSINOPHIL [2]: 81.33 CELLS/uL
ABSOLUTE LYMPHOCYTE [2]: 10099 CELLS/uL
ABSOLUTE MONOCYTE [2]: 0 CELLS/uL
ABSOLUTE SEGMENTED NEUTROPHIL [2]: 453 CELLS/uL
BASOPHIL [2]: 0%
EOSINOPHIL [2]: 0.67%
ERYTHROCYTE COUNT [2]: 6.34 x10E6/uL
HEMATOCRIT [2]: 40.77%
HEMOGLOBIN [2]: 16.03 G/DL
LEUKOCYTE COUNT [2]: 10.63 x10E3/uL
LYMPHOCYTE [2]: 95.33%
MEAN CORPUSCULAR HEMOGLOBIN [2]: 25.3 pg
MEAN CORPUSCULAR HEMOGLOBIN CONCENTRATION [2]: 39.37 G/DL
MEAN CORPUSCULAR VOLUME [2]: 64.3 fL
MONOCYTE [2]: 0%
NEUTROPHIL [2]: 4%
NUCLEATED RED BLOOD CELLS [2]: 1 /100WBC
PLATELET COUNT [2]: 1132 x10E3/uL
ALANINE AMINOTRANSFERASE [2]: 31.33 u/L
ALBUMIN [2]: 4.87 G/DL
ALKALINE PHOSPHATASE [2]: 290 u/L
ASPARTATE AMINOTRANSFERASE [2]: 67.33 u/L
BLOOD UREA NITROGEN [2]: 24 mg/dL
CARBON DIOXIDE [2]: 22.67 mmol/L
CHLORIDE [2]: 108 MEQ/L
CHOLESTEROL [2]: 89 mg/dL
CREATINE PHOSPHOKINASE [2]: 161.33 u/L
CREATININE [2]: 0.2 mg/dL
GLUCOSE [2]: 145.67 mg/dL
LACTATE DEHYDROGENASE [2]: 143.33 u/L
LIPASE [2]: 8 u/L
PHOSPHORUS [2]: 11.93 mg/dL
POTASSIUM [2]: 6.09 MEQ/L
SODIUM [2]: 150.37 MEQ/L
TOTAL BILIRUBIN [2]: 0.2 mg/dL
TOTAL PROTEIN [2]: 7.03 G/DL
URIC ACID [2]: 2.53 mg/dL
ABSOLUTE BASOPHIL [3]: 0 CELLS/uL
ABSOLUTE EOSINOPHIL [3]: 0 CELLS/uL
ABSOLUTE LYMPHOCYTE [3]: 10951.33 CELLS/uL
ABSOLUTE MONOCYTE [3]: 241 CELLS/uL
ABSOLUTE SEGMENTED NEUTROPHIL [3]: 641 CELLS/uL
BASOPHIL [3]: 0%
EOSINOPHIL [3]: 0%
ERYTHROCYTE COUNT [3]: 6.41 x10E6/uL
HEMATOCRIT [3]: 38.7%
HEMOGLOBIN [3]: 15.23 G/DL
LEUKOCYTE COUNT [3]: 11.83 x10E3/uL
LYMPHOCYTE [3]: 92.67%
MEAN CORPUSCULAR HEMOGLOBIN [3]: 23.73 pg
MEAN CORPUSCULAR HEMOGLOBIN CONCENTRATION [3]: 39.33 G/DL
MEAN CORPUSCULAR VOLUME [3]: 60.37 fL
MONOCYTE [3]: 2%
NEUTROPHIL [3]: 5.33%
NUCLEATED RED BLOOD CELLS [3]: 0 /100WBC
PLATELET COUNT [3]: 1133 x10E3/uL
ALANINE AMINOTRANSFERASE [3]: 46.33 u/L
ALBUMIN [3]: 4.37 G/DL
ALKALINE PHOSPHATASE [3]: 354.33 u/L
ASPARTATE AMINOTRANSFERASE [3]: 99.67 u/L
BLOOD UREA NITROGEN [3]: 21.33 mg/dL
CARBON DIOXIDE [3]: 24.67 mmol/L
CHLORIDE [3]: 105.67 MEQ/L
CHOLESTEROL [3]: 84.67 mg/dL
CREATINE PHOSPHOKINASE [3]: 760.33 u/L
CREATININE [3]: 0.23 mg/dL
GLUCOSE [3]: 146 mg/dL
LACTATE DEHYDROGENASE [3]: 421 u/L
LIPASE [3]: 9 u/L
PHOSPHORUS [3]: 11.03 mg/dL
POTASSIUM [3]: 6.4 MEQ/L
SODIUM [3]: 147.97 MEQ/L
TOTAL BILIRUBIN [3]: 0.27 mg/dL
TOTAL PROTEIN [3]: 6.17 G/DL
URIC ACID [3]: 1.8 mg/dL
